Assay results published in article PMC3733984, “Tylophorine, a phenanthraindolizidine alkaloid isolated from Tylophora indica exerts antiangiogenic and antitumor activity by targeting vascular endothelial growth factor receptor 2–mediated angiogenesis” (Molecular Cancer, 2013).

Molecular target: VEGFR2 (KDR/Flk-1) (Homo sapiens, UniProt P35968)
Test: in vitro HTScan VEGFR2 kinase assay, colorimetric ELISA detection ([…] ATP)
Type: biochemical

Sequence of VEGFR2 (KDR/Flk-1) (P35968 20-1356): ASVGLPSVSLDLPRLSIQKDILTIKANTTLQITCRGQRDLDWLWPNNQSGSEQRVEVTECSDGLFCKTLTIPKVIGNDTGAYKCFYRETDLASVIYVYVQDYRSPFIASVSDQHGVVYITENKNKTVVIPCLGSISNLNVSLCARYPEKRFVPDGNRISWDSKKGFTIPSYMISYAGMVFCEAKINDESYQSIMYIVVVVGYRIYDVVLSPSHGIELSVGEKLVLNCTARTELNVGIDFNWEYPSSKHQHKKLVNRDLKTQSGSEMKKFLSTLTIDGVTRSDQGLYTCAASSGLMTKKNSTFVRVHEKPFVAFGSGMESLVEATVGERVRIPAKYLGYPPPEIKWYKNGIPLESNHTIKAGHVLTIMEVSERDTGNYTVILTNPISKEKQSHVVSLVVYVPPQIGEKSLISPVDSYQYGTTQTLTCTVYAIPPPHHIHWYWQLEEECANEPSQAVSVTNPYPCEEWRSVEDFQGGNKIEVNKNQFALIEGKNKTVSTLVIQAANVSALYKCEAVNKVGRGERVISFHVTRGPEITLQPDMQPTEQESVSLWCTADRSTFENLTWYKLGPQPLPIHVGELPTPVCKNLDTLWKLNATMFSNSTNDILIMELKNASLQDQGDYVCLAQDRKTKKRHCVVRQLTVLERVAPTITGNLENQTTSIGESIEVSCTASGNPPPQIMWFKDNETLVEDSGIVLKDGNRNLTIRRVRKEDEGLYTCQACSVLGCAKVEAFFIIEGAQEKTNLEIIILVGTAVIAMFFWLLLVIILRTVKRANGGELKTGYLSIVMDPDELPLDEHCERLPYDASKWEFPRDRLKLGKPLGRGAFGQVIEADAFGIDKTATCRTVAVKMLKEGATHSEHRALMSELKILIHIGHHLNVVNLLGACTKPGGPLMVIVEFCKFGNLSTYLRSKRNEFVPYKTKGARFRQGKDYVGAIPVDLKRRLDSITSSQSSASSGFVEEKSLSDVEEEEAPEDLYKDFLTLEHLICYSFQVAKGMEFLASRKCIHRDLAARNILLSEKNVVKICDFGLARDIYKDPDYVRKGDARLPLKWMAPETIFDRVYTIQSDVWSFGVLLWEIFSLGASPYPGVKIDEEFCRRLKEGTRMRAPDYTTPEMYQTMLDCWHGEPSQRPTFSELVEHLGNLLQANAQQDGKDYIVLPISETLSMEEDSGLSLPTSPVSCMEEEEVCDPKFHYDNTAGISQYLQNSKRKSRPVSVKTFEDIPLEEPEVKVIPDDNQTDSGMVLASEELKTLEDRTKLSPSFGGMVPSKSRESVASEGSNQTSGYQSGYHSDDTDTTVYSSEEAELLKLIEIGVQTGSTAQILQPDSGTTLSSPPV

COc1cc2c3c(c4cc(OC)c(OC)cc4c2cc1OC)CN1CCC[C@@H]1C3 [Tylophorine]
IC50: ~9.2 µM
